Assay results: patent US20250213563A1, “SUBSTITUTED PYRIMIDIN-4(3H)-ONES FOR USE IN TREATING CANCER” (NAVIRE PHARMA, INC., priority 2021, published 2025)
Where two headings read alike, the source gives them in different places.

Experiments:
human SHP-1 = biological target: T1, human SHP-1 (Homo sapiens, UniProt P29350); assay: Eurofins Panlabs spectrofluorimetric phosphatase assay; assay type: biochemical; details: 10 μM
T1 construct: a panel of 14 full-length human phosphatases; purchased Eurofins Panlabs
T1 sequence (P29350 whole entry): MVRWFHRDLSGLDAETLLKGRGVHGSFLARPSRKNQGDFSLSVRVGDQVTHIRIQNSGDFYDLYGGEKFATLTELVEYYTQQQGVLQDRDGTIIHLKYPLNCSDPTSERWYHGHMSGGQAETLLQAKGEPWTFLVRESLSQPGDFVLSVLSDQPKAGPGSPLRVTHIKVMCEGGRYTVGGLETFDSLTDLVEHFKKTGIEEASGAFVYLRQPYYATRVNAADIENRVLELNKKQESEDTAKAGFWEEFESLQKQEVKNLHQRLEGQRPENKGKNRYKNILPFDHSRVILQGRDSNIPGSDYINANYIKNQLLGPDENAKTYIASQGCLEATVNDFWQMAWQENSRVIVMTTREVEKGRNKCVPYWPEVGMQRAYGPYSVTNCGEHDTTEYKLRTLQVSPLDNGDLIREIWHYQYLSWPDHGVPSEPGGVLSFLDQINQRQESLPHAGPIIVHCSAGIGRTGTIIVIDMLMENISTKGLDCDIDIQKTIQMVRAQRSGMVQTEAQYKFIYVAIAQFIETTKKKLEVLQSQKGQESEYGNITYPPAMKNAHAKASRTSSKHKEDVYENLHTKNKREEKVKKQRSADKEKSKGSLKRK
Description: The activity of Compound (10b) was also assessed against a panel of 14 full-length human phosphatases using spectrofluorimetric biochemical assays. These assays were conducted using the Eurofins Panlabs platform.

[1] = Single-dose pharmacokinetics, CD-1 mouse; assay type: in vivo, mouse (CD-1, female); details: for AUC(0-t): read-out: AUC0→24
Description: The pharmacokinetic (PK) parameters of Compound (10b) (freebase) were determined following single intravenous (IV) and oral (PO) administration in female CD-1 mouse, female C57BL/6 mouse (PO only), male Sprague Dawley rat, male Beagle dog, and male Cynomolgus monkey. Additional evaluation of the PK properties of Compound (10b) was obtained following single dose PO administration in female CD-1 mouse, male Sprague Dawley rat and male Beagle dog over a dose range spanning 10 to 300 mg/kg (mouse and rat) and 1 to 100 mg/kg (dog). The intravenous dose solutions were prepared in 20% DMSO-60% PEG400-20% water and the oral dose solutions as suspensions in 0.5% methylcellulose in water, unless otherwise noted. Plasma concentration profiles were generated from serial sampling in individual animals up to 24 hours post dose, except for the studies in mice where composite sampling methods were used (i.e. 3 sampling times per mouse; 9 mice per group). […] Exposures increased with increasing dose level across species, in a dose-proportional manner in mouse and dog, and in a greater than dose-proportional manner in rat (80× increase in AUC with a 30× increase in dosage).

[2] = test system: KYSE-520 xenograft tumors; assay: Pharmacodynamics in KYSE-520 xenograft tumors (DUSP6 / MPAS-plus mRNA); assay type: in vivo, NSG mice; details: for IC50: Mus musculus, KYSE-520, plasma concentration
Description: KYSE-520 (EGFRamp) cells were subcutaneously implanted in NSG mice and allowed to grow to an average tumor volume of 340 mm^3 as monitored by caliper measurements. At this point, animals were randomized and treated with vehicle, Compound (10b) 25 mg/kg or Compound (10b) 100 mg/kg PO. Plasma and tumor samples were harvested 4, 16 and 24 hours after a single dose. Compound (10b) plasma concentration and tumor pERK levels were determined. Data represent mean±SEM. N=4 mice per group.
In addition to DUSP6 mRNA levels, other MAPK pathway genes were examined through sequencing analysis. The MPAS (MAPK pathway activity score) signature is a signature of 10 genes that reflects MAPK pathway activity. This gene signature has been used in the clinic to evaluate the pharmacodynamic effect of the ERK inhibitor GDC-0994 in tumors. Based on the MPAS signature, a 13-gene signature (“MPAS-plus”) was developed, which includes the 10 MPAS genes and three additional MAPK-targeted genes (ETV1, EGR1 and FOSL1) that are modulated by SHP2 inhibitors across multiple cell line models (data not shown).

[3] = female, CD-1, mouse, plasma, IV 1 mg/kg, free base
[4] = female, CD-1, mouse, plasma, oral 10 mg/kg, free base

In the case of `Cc1c(N2CCC3(CC2)CO[C@@H](C)[C@H]3N)nc(C)n(-c2cccc(Cl)c2Cl)c1=O` (atropisomer, axis not shown; (Ra)) [Compound (10b), 6-((3S,4S)-4-amino-3-methyl-2-oxa-8-azaspiro[4.5]decan-8-yl)-3-(Ra)-(2,3-dichlorophenyl)-2,5-dimethylpyrimidin-4(3H)-one], the “inhibition of human SHP-1” value (human SHP-1) is reported as “did not demonstrate any inhibition”, the half-life [1, 3] is reported as 133 min and the AUC(0-t) [1, 3] is reported as 1.39 µM·h. It also gave a clearance ([1]; female, CD-1, mouse, plasma, IV 1 mg/kg, free base, read-out: Clp (converted)) of 25.7 mL/min/kg, a Vd ([1]; female, CD-1, mouse, plasma, IV 1 mg/kg, free base, read-out: Vdss) of 3.84 L/kg and a Cmax [1, 4] of 4.17 µM. The AUC(0-t) [1, 4] was 12.5 µM·h, the Tmax ([1]; female, CD-1, mouse, plasma, oral 10 mg/kg, free base, read-out: Tmax (mean)) was 15 min and the Tmax ([1]; female, CD-1, mouse, plasma, oral 300 mg/kg, read-out: mean Tmax) was 15 min. The F ([1]; oral 10 mg/kg, free base) was 84.1%, the “suppression of DUSP6 mRNA levels in tumors” value (from here on “suppression … in tumors”) ([2]; 25 mg/kg PO, 4-hour after a single dose) was > 90% and the “suppression … in tumors” value ([2]; 25 mg/kg PO, 16-hour after a single dose) was < 50%. For the same compound, the “suppression … in tumors” value ([2]; 25 mg/kg or 100 mg/kg PO, 24-hour after a single dose) was “neither treatment significantly suppressed”, the “suppression … in tumors” value ([2]; 100 mg/kg PO, 4-hour after a single dose) was > 90% and the “suppression … in tumors” value ([2]; 100 mg/kg PO, 16-hour after a single dose) was > 50%. The IC50 ([2]; PK/PD relationship, read-out: in vivo IC50) was 1.5 µM, the IC50 ([2]; read-out: KYSE-520 xenograft DUSP6 IC50) was 0.656 µg/mL and the Cmax ([2]; prediction used as reference line for human plasma levels, read-out: predicted efficacious Cmax) was 5.3 µM. For the same compound, the “suppression of the MPAS-plus signature in the tumor” value ([2]; single oral dose or five doses, 25 mg/kg or 100 mg/kg) was “dose- and time-dependent suppression”.
